In publication PMC3076215 (Biochemistry, 2011):

Biological target: T1, Carbon monoxide dehydrogenase (CODH) (Afipia carboxidovorans, UniProt P19920)
T1 sequence (P19920 1-288): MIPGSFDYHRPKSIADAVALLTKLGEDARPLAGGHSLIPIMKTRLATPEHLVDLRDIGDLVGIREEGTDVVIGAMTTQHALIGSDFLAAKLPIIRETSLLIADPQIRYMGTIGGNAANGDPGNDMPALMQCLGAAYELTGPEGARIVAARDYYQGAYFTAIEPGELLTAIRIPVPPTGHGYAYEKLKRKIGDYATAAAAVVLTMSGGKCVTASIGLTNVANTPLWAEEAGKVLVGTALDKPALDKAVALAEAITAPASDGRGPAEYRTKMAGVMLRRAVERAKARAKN
T1 sequence (P19919 1-809 partner): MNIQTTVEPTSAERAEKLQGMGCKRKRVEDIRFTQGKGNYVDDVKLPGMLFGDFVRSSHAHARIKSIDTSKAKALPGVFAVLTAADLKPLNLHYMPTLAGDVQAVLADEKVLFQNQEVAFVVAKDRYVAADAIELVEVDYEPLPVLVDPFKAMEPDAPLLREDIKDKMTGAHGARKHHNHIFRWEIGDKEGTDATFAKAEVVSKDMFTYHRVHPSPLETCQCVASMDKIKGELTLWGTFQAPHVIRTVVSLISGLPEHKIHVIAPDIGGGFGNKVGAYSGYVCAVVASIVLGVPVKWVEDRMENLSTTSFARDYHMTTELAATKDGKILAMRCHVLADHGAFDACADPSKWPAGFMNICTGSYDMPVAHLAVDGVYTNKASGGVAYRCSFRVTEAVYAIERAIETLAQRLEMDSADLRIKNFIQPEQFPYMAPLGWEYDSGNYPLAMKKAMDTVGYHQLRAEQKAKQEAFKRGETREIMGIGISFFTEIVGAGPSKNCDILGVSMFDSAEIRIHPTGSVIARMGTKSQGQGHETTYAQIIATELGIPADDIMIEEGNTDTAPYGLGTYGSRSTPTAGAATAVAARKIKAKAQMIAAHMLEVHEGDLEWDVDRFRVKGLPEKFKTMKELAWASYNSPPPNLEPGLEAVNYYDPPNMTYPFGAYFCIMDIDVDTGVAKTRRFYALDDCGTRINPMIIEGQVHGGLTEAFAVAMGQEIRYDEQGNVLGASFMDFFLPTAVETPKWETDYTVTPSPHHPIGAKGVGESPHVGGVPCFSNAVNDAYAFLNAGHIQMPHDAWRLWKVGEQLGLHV
T1 sequence (P19921 1-166 partner): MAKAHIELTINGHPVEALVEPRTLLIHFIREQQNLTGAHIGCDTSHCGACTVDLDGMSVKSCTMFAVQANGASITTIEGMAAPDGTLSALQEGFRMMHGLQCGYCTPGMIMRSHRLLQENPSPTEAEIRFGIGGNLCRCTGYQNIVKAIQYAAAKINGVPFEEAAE
Experiment: UV-vis difference titration at […] nm
Assay type: binding

O=C1C=CC(=O)C=C1 [1,4-benzoquinone]
Kd: 100 µM
